Measured values: patent US6331565A, “Dicaffeoylquinic acid for treating hepatitis B and the diseases associated with retrovirus, and the new caffeoylquinic acid derivatives” (Institute of Radiation Medicine Academy of Military Medical …, priority 1996, dated 2001)
Converted amounts (≈) assume the structure as drawn. “Also recorded” adds a separate entry of the source. Like-named read-outs stand apart in the source and are kept apart here.

Assays:
HBV DNA polymerase = molecular target: T1, HBV DNA polymerase (Hepatitis B virus genotype D subtype ayw, UniProt P03156); test: HBV DNA polymerase assay; type: biochemical
T1 construct: HBV DNA polymerase in viral particles; host or cells: viral particles
T1 sequence (P03156 whole entry): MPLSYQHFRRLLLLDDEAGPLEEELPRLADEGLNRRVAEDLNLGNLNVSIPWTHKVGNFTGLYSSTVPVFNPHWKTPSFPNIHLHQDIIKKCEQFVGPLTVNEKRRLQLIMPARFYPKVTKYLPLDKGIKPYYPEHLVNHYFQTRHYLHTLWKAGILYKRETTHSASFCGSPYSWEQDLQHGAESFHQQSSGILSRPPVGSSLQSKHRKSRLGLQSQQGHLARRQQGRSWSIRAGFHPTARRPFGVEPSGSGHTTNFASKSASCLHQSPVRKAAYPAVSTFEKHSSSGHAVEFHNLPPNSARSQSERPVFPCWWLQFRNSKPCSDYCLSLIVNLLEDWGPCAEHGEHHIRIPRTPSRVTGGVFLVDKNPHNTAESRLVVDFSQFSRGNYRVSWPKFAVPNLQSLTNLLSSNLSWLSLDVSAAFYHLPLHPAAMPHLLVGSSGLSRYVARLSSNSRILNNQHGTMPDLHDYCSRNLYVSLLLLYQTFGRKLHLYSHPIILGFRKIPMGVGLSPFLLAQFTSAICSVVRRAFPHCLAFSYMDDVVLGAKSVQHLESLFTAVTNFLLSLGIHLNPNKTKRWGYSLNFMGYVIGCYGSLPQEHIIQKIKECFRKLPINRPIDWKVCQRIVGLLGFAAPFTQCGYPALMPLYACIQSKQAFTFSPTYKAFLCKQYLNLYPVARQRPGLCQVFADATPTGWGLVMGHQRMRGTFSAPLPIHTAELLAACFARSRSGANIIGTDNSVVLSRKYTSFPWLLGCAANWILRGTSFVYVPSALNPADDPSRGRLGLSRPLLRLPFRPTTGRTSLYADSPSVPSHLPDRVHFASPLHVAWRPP
Method: Assay was performed as described by Hantz (Antiviral Res 4(1984) 187-199) with minor modification. The Reaction mixture consisted of HBV DNA polymerase in viral particles in 200 mmol.l^-1 of Tris-HCl pH 7.6, 200 mmol.l^-1 of NH4 Cl. 50 mmol.l^-1 of MgCl2, 10 mmol.l^-1 of 2-mercaptoethanol, 2% Nonidet P-40 and 300 μmol.l^-1 concentrations of deoxynucleotide triphosphates except for [^3 H]dTTP, which was included in the assay at 20 μci.ml^-1. […] The mixtures were incubated at 37° C. for 4 h prior to spotting on Whatman No.3 filter paper which was washed 4 times with cold 5% trichloroacitic acid, then with ethanol. The HBV DNA polymerase activity as measure of the incorperation of the radionucleotide into the viral DNA was counted in a Recbeta (LKB)scintilation counter.

HBeAg = test: microbe, parasite or virus in culture; type: cell-based, HBV; details: Hepatitis B virus; for inhibition at 7.81 µg/mL / inhibition at 15.63 µg/mL / inhibition at 31.25 µg/mL / inhibition at 62.5 µg/mL / inhibition at 125 µg/mL / inhibition at 250 µg/mL: read-out: HBeAg Inhibit rate (%)
Method: (§1) The cultures were passenged by trypsinization every 4 days.
(§2) HBsAg and HBeAg in the culture medium were determined according to the protocol respectively. The culture medium (200 μl) was absorbed on beads containing antibody to HBsAg/HBeAg in the presence of the conjugate. After overnight incubation, the beads were washed 6 times with […] PBS containing 0.05% Tween-80 and incubated with 200 μl of [^125 I] anti-HBs(Hbe) overnight. The beads were washed 6 times as above. The amounts HBsAg/HBeAg as measure of cpm of [^125 I] labeled immunocomplex was counted on γ-counter.

HBsAg = test: microbe, parasite or virus in culture; type: cell-based, HBV; details: Hepatitis B virus; for inhibition at 7.81 µg/mL / inhibition at 15.63 µg/mL / inhibition at 31.25 µg/mL / inhibition at 62.5 µg/mL / inhibition at 125 µg/mL / inhibition at 250 µg/mL: read-out: HBsAg Inhibit rate (%)
Method: as §1, §2

Hep G2 cell lines = test: Cytotoxicity in Hep G2 cell lines; type: cell-based; details: 1.0 μg.ml^-1
Method: The viability of cells was determined by MTT.

[1] = system: lymphocyte proliferation induced by Con A; details: mice infected with MuLV
Method: mice. Five-wk-old female C57BL/6 mice were used throughout the experiments. All mice were housed in sterile cages in a room supplied with filtrated air. They were given pelleted food and chlorinated water ad libitum.
Infection with LP-BM5 MuLV. Cell-free supernatants of LP-BM5 MULV were prepared by cocultivating G6 SC-1 clones with normal SC-1 cells for 5 days. Mice were inoculated intraperitoneally with 150 μl of stock solution containing 10^3,4×C plaque-forming units and 10^2,3 Mink-cell focks-forming units per […].
Then, the spleens were collected. Cell suspensions were prepared by repeated passage of whole spleen through a pipette, the capsule and debris were allowed to settle, and the supernatants containing cells were collected and washed twice in PBS. […] Incubation continued for 16 hr, then cells were collected on filter that was determined by a scintillation counter.

In the case of `O=C(/C=C/c1ccc(O)c(O)c1)OC1CC(OC(=O)/C=C/c2ccc(O)c(O)c2)(C(=O)O)CC(O)C1O` (stereo not drawn) [Compound A, 1,5-di-O-caffeoylquinic acid], the IC50 (HBV DNA polymerase) is reported as 59.3 µM, the “inhibitory effect on HBV DNAp” value (HBV DNA polymerase) is reported as “significant dose-dependent inhibitory effect” and the cpm (HBV DNA polymerase; 1 μg/ml) is reported as 9856 ± 201 cpm. It also gave a cpm (HBV DNA polymerase; 10 μg/ml) of 7990 ± 79 cpm, a cpm (HBV DNA polymerase; 100 μg/ml) of 3522 ± 51 cpm and a cpm (HBV DNA polymerase; 1000 μg/ml) of 1983 ± 159 cpm. It also gave an inhibition at 1 µg/mL (HBV DNA polymerase; read-out: Inhibitory rate (%)) of 11.2 ± 1.9%, an inhibition at 10 µg/mL (HBV DNA polymerase; read-out: Inhibitory rate (%)) of 30.3 ± 0.8% and an inhibition at 100 µg/mL (HBV DNA polymerase; read-out: Inhibitory rate (%)) of 68.4 ± 0.5%. For the same compound, the inhibition at 1000 µg/mL (HBV DNA polymerase; read-out: Inhibitory rate (%)) was 82.3 ± 1.5%, the inhibition at 7.81 µg/mL (HBeAg; 96 h) was 8.94 ± 4.29% and the inhibition at 15.63 µg/mL (HBeAg; 96 h) was 19.1 ± 3.89%. The inhibition at 31.25 µg/mL (HBeAg; 96 h) was 34.5 ± 6.66%, the inhibition at 62.5 µg/mL (HBeAg; 96 h) was 41 ± 3.68% and the inhibition at 125 µg/mL (HBeAg; 96 h) was 47.4 ± 1.09%. It also gave an inhibition at 250 µg/mL (HBeAg; 96 h) of 64.2 ± 2.03%, an inhibition at 7.81 µg/mL (HBeAg; 288 h) of 15.9 ± 2.4% and an inhibition at 15.63 µg/mL (HBeAg; 288 h) of 27.8 ± 2.23%. The inhibition at 31.25 µg/mL (HBeAg; 288 h) was 30.5 ± 3.55%, the inhibition at 62.5 µg/mL (HBeAg; 288 h) was 47.3 ± 0.81% and the inhibition at 125 µg/mL (HBeAg; 288 h) was 54.5 ± 1.01%. It also gave an inhibition at 250 µg/mL (HBeAg; 288 h) of 66.5 ± 0.9%, an inhibition at 7.81 µg/mL (HBeAg; […]) of 10.4 ± 2.05% and an inhibition at 15.63 µg/mL (HBeAg; […]) of 31.7 ± 7.1%. It also gave an inhibition at 31.25 µg/mL (HBeAg; […]) of 41.8 ± 2.47%, an inhibition at 62.5 µg/mL (HBeAg; […]) of 45.2 ± 2.47% and an inhibition at 125 µg/mL (HBeAg; […]) of 52.5 ± 1.89%. For the same compound, the inhibition at 250 µg/mL (HBeAg; […]) was 64.7 ± 2.28%, the IC50 (HBeAg; read-out: IC50, production of HBeAg) was 21 to 78 µg/mL (≈ 40.7 to 151 µM) and the inhibition at 7.81 µg/mL (HBsAg; 96 h) was 17.2%. For the same compound, the inhibition at 15.63 µg/mL (HBsAg; 96 h) was 26%, the inhibition at 31.25 µg/mL (HBsAg; 96 h) was 37.2 ± 2.86% and the inhibition at 62.5 µg/mL (HBsAg; 96 h) was 47.5 ± 1.17%. For the same compound, the inhibition at 125 µg/mL (HBsAg; 96 h) was 57%, the inhibition at 250 µg/mL (HBsAg; 96 h) was 62.3 ± 2.22% and the inhibition at 7.81 µg/mL (HBsAg; 288 h) was 24.2 ± 4.63%. It also gave an inhibition at 15.63 µg/mL (HBsAg; 288 h) of 31.4 ± 3.2%, an inhibition at 31.25 µg/mL (HBsAg; 288 h) of 36.1% and an inhibition at 62.5 µg/mL (HBsAg; 288 h) of 50.1 ± 1.28%. It also gave an inhibition at 125 µg/mL (HBsAg; 288 h) of 58.3%, an inhibition at 250 µg/mL (HBsAg; 288 h) of 66.6% and an inhibition at 7.81 µg/mL (HBsAg; […]) of 18.5%. For the same compound, the inhibition at 15.63 µg/mL (HBsAg; […]) was 27.6%, the inhibition at 31.25 µg/mL (HBsAg; […]) was 35.8 ± 1.9% and the inhibition at 62.5 µg/mL (HBsAg; […]) was 46.7 ± 2.03%. It also gave an inhibition at 125 µg/mL (HBsAg; […]) of 55 ± 2.08%, an inhibition at 250 µg/mL (HBsAg; […]) of 68.8 ± 4.68% and an IC50 (HBsAg; read-out: IC50, production of HBsAg) of 21 to 165 µg/mL (≈ 40.7 to 319 µM). For the same compound, the IC50 (HBsAg; read-out: IC50 for inhibition of production of HBsAg) was 21 to 165 µg/mL (≈ 40.7 to 319 µM), the “toxicity to Hep G2 cell lines” value (Hep G2 cell lines) was “did not show toxicity” and the “proliferation of lymphocyte induced by Con A” value [1] was “enhance the proliferation of lymphocyte induced by Con A in a degree near to that of AZT; also recorded: enhance the proliferation of lymphocyte of mice infected with MuLV”.
